Reference: US6737383B1, “Herbicidal oxadiazolidines” (priority 1999, dated 2004)

Columns and labels:
sunflower = assay: Test E sunflower; assay type: in vivo, Helianthus annuus; details: Postemergence
Procedure, shortened: (§1)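 Postemergence: spray at 1–4 leaf stage, soil 60:40 sandy loam:potting mix; solvent + surfactant formulation; greenhouse 21–28 d; visual injury vs untreated controls.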

scentless chamomile = assay: Test E scentless chamomile; assay type: in vivo, Matricaria inodora; details: Preemergence
blackgrass = assay: Test E blackgrass; assay type: in vivo, Alopecurus myosuroides; details: Postemergence
Description: (§2) Compounds evaluated in this test were formulated in a non-phytotoxic solvent mixture which included a surfactant and applied to plants that were in the 1- to 4-leaf stage (postemergence application). A mixture of sandy loam soil and greenhouse potting mix in a 60:40 ratio was used for the postemergence test.
(§3) Plantings of these crops and weed species were adjusted to produce plants of appropriate size for the postemergence test. All plant species were grown using normal greenhouse practices. Crop and weed species include annual bluegrass (Poa annua), blackgrass (Alopecurus myosuroides), black nightshade (Solanum nigra), chickweed (Stellaria media), common poppy (Papaver rhoeas), deadnettle (Lamium amplexicaule), downy brome (Bromus tectorum), field violet (Viola arvensis), galium (Galium aparine), green foxtail (Setaria viridis), Italian ryegrass (Lolium multiflorum), jointed goatgrass (Aegilops cylindrica), kochia (Kochia scoparia), lambsquarters (Chenopodium album), littleseed canarygrass (Phalaris minor), rape (Brassica napus), redroot pigweed (Amaranthus retroflexus), Russian thistle (Salsola kali), scentless chamomile (Matricaria inodora), spring barley (Hordeum vulgare), sugar beet (Beta vulgaris), sunflower (Helianthus annuus), ivyleaf speedwell (Veronica hederaefolia), spring wheat (Triticum aestivum), winter wheat (Triticum aestivum), wild buckwheat (Polygonum convolvulus), wild mustard (Sinapis arvensis), wild oat (Avena fatua), windgrass (Apera spica-venti) and winter barley (Hordeum vulgare).
(§4) Treated plants and untreated controls were maintained in a greenhouse for approximately 21 to 28 days, after which all treated plants were compared to untreated controls and visually evaluated. […] A dash response (-) means no test result.

Italian ryegrass = assay: Test E Italian ryegrass; assay type: in vivo, Lolium multiflorum; details: Postemergence
Procedure, shortened: as §1

kochia = assay: Test E kochia; assay type: in vivo, Kochia scoparia; details: Postemergence
Procedure, shortened: as §1

lambsquarters [1] = assay: Test E lambsquarters; assay type: in vivo, Chenopodium album; details: Preemergence
lambsquarters [2] = assay: Test E lambsquarters; assay type: in vivo, Chenopodium album; details: Postemergence
Procedure, shortened: as §1

galium = assay: Test E galium; assay type: in vivo, Galium aparine; details: Preemergence
windgrass = assay: Test E windgrass; assay type: in vivo, Apera spica-venti; details: Preemergence
Russian thistle = assay: Test E Russian thistle; assay type: in vivo, Salsola kali; details: Postemergence
Description: […] A mixture of sandy loam soil and greenhouse potting mix in a 60:40 ratio was used for the postemergence test.
as §3, §4

eastern black nightshade = assay: Test C postemergence eastern black nightshade; assay type: in vivo, Solanum ptycanthum; details: 0 to 100 scale, 0 no effect, 100 complete control
Description: as §2, with “grown for various periods of time before treatment” for “in the 1- to 4-leaf stage”
(§5) Plantings of these crops and weed species were adjusted to produce plants of appropriate size for the postemergence test. All plant species were grown using normal greenhouse practices. Crop and weed species include arrowleaf sida (Sida rhombifolia), barnyardgrass (Echinochloa crus-galli), cocklebur (Xanthium strumarium), common ragweed (Ambrosia elatior), corn (Zea mays), cotton (Gossypium hirsutum), eastern black nightshade (Solanum ptycanthum), fall panicum (Panicum dichotomiflorum), field bindweed (Convolvulus arvensis), giant foxtail (Setaria faberii), hairy beggarticks (Bidens pilosa), ivyleaf morningglory (Ipomoea hederacea), johnsongrass (Sorghum halepense), ladysthumb smartweed (Polygonum persicaria), lambsquarters (Chenopodium album), large crabgrass (Digitaria sanguinalis), purple nutsedge (Cyperus rotundus), redroot pigweed (Amaranthus retroflexus), soybean (Glycine max), surinam grass (Brachiaria decumbens), velvetleaf (Abutilon theophrasti) and wild poinsettia (Euphorbia heterophylla).
(§6) Treated plants and untreated controls were maintained in a greenhouse for approximately 14, to 21 days, after which all treated plants were compared to untreated controls and visually evaluated. Plant response ratings, summarized in Table C, were based upon a 0 to 100 scale where 0 was no effect and 100 was complete control. A dash response (−) means no test result.

giant foxtail = assay: Test C postemergence giant foxtail; assay type: in vivo, Setaria faberii; details: 0 to 100 scale, 0 no effect, 100 complete control
Description: as §2, with “grown for various periods of time before treatment” for “in the 1- to 4-leaf stage”
as §5, §6

Green foxtail = assay: Test D green foxtail; assay type: in vivo; details: Postemergence, 0 to 100 scale, 0 no injury, 100 complete control
Spanishneedles = assay: Test D Spanishneedles; assay type: in vivo, Bidens bipinnata; details: Postemergence, 0 to 100 scale
[3] = tested on: Abutilon theophrasti (ABUTH); assay: Test F preemergence, alone and in mixture with rimsulfuron, ABUTH; assay type: in vivo; details: 21 days after treatment, 0-100 scale
Procedure, shortened: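 Greenhouse pot plants treated preemergence with compound at 70 and 105 g ai/ha, rimsulfuron at 8.8 and 17.5 g ai/ha, or mixtures; 27° C day/21° C night, 14 hour photoperiod. Injury scored at 21 days after treatment against solvent-sprayed controls; expected additive effect of mixtures calculated by Colby's equation.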

[4] = Rate 250 g/ha, 0 to 100 scale (0 no effect, 100 complete control)
[5] = Rate 500 g/ha, 0 to 100 scale, 0 no effect, 100 complete control
[6] = Rate 125 g/ha, 0 to 100 scale (0 no effect, 100 complete control)
[7] = Rate 500 g/ha, 0 to 100 scale where 0 is no effect and 100 is complete control
[8] = Rate 250 g/ha, 0 to 100 scale where 0 is no effect and 100 is complete control

CC(C)N(C(=O)n1oc(=O)n(C(C)C)c1=O)c1ccc(Cl)cc1 [Compound 114]
Plant response rating, Sunflower (sunflower; Rate 125 g/ha, 0 to 100 scale): 10 | Plant response rating, Sunflower (sunflower; [4]): 10 | Plant response rating, Sunflower (sunflower; [5]): 15 | Plant response rating, Scentless chamo (scentless chamomile; [6]): 30 | Plant response rating, Scentless chamo (scentless chamomile; Rate 250 g/ha, 0 to 100 scale): 30 | Plant response rating, Scentless chamo (scentless chamomile; [7]): 10 | Plant response rating, Blackgrass (blackgrass; Rate 125 g/ha, 0 to 100 scale): 0 | Plant response rating, Blackgrass (blackgrass; [4]): 20 | Plant response rating, Blackgrass (blackgrass; [5]): 65 | Plant response rating, I. Ryegrass (Italian ryegrass; Rate 125 g/ha, 0 to 100 scale): 10 | Plant response rating, I. Ryegrass (Italian ryegrass; [4]): 20 | Plant response rating, I. Ryegrass (Italian ryegrass; [5]): 20 | Plant response rating, Kochia (kochia; Rate 125 g/ha, 0 to 100 scale): 20 | Plant response rating, Kochia (kochia; [4]): 30 | Plant response rating, Kochia (kochia; [5]): 30 | Plant response rating, Lambsquarters (lambsquarters [1]; [6]): 50 | Plant response rating, Lambsquarters (lambsquarters [1]; Rate 250 g/ha, 0 to 100 scale): 100 | Plant response rating, Lambsquarters (lambsquarters [1]; [7]): 100 | Plant response rating, Lambsquarters (lambsquarters [2]; Rate 125 g/ha, 0 to 100 scale): 30 | Plant response rating, Lambsquarters (lambsquarters [2]; [4]): 30 | Plant response rating, Lambsquarters (lambsquarters [2]; [5]): 40 | Plant response rating, Galium (galium; [6]): 100 | Plant response rating, Galium (galium; Rate 250 g/ha, 0 to 100 scale): 60 | Plant response rating, Galium (galium; [7]): 70 | Plant response rating, Windgrass (windgrass; [6]): 100 | Plant response rating, Windgrass (windgrass; [7]): 100 | Plant response rating, Russian thistle (Russian thistle; Rate 125 g/ha, 0 to 100 scale): 0 | Plant response rating, Russian thistle (Russian thistle; [4]): 0 | Plant response rating, Russian thistle (Russian thistle; [5]): 0

CCn1c(=O)on(C(=O)N(c2ccccc2)C(C)C)c1=O [Compound 117]
Plant response rating E. blacknightsh (eastern black nightshade; Rate 140 g/ha): 0 | Plant response rating E. blacknightsh (eastern black nightshade; Rate 280 g/ha): 0 | Plant response rating E. blacknightsh (eastern black nightshade; Rate 560 g/ha): 70 | Plant response rating E. blacknightsh (eastern black nightshade; Rate 1120 g/ha): 80 | Plant response rating, Giant foxtail (giant foxtail; Rate 140 g/ha): 0 | Plant response rating, Giant foxtail (giant foxtail; Rate 280 g/ha): 60 | Plant response rating, Giant foxtail (giant foxtail; Rate 560 g/ha): 75 | Plant response rating, Giant foxtail (giant foxtail; Rate 1120 g/ha): 80

CC(C)N(C(=O)n1oc(=O)n(C(C)C)c1=O)c1ccc(F)cc1 [Compound 131]
Plant response rating, Sunflower (sunflower; Rate 62 g/ha, 0 to 100 scale): 10 | Plant response rating, Sunflower (sunflower; Rate 125 g/ha, 0 to 100 scale): 0 | Plant response rating, Sunflower (sunflower; [5]): 0 | Sunflower plant response rating (sunflower; [8]): 0 | Plant response rating E. blacknightsh (eastern black nightshade; Rate 140 g/ha): 0 | Plant response rating E. blacknightsh (eastern black nightshade; Rate 280 g/ha): 10 | Plant response rating E. blacknightsh (eastern black nightshade; Rate 560 g/ha): 50 | Plant response rating E. blacknightsh (eastern black nightshade; Rate 1120 g/ha): 80 | Plant response rating, Blackgrass (blackgrass; Rate 62 g/ha, 0 to 100 scale): 85 | Plant response rating, Blackgrass (blackgrass; Rate 125 g/ha, 0 to 100 scale): 20 | Plant response rating, Blackgrass (blackgrass; [5]): 75 | Blackgrass plant response rating (blackgrass; [8]): 60 | Plant response rating, I. Ryegrass (Italian ryegrass; Rate 62 g/ha, 0 to 100 scale): 50 | Plant response rating, I. Ryegrass (Italian ryegrass; Rate 125 g/ha, 0 to 100 scale): 0 | Plant response rating, I. Ryegrass (Italian ryegrass; [5]): 40 | I. Ryegrass plant response rating (Italian ryegrass; [8]): 30 | Plant response rating, Kochia (kochia; Rate 62 g/ha, 0 to 100 scale): 45 | Plant response rating, Kochia (kochia; Rate 125 g/ha, 0 to 100 scale): 0 | Plant response rating, Kochia (kochia; [5]): 0 | Kochia plant response rating (kochia; [8]): 0 | Plant response rating, Lambsquarters (lambsquarters [1]; [6]): 100 | Lambsquarters plant response rating (0 to 100 scale) (lambsquarters [1]; Rate 250 g/ha): 100 | Plant response rating, Lambsquarters (lambsquarters [1]; [7]): 100 | Plant response rating, Giant foxtail (giant foxtail; Rate 140 g/ha): 10 | Plant response rating, Giant foxtail (giant foxtail; Rate 280 g/ha): 40 | Plant response rating, Giant foxtail (giant foxtail; Rate 560 g/ha): 60 | Plant response rating, Giant foxtail (giant foxtail; Rate 1120 g/ha): 80 | Plant response rating, Lambsquarters (lambsquarters [2]; Rate 62 g/ha, 0 to 100 scale): 0 | Plant response rating, Lambsquarters (lambsquarters [2]; Rate 125 g/ha, 0 to 100 scale): 0 | Plant response rating, Lambsquarters (lambsquarters [2]; [5]): 0 | Lambsquarters plant response rating (lambsquarters [2]; [8]): 0 | Plant response rating, Galium (galium; [6]): 60 | Galium plant response rating (0 to 100 scale) (galium; Rate 250 g/ha): 50 | Plant response rating, Galium (galium; [7]): 100 | Plant response rating, Green foxtail (Green foxtail; Rate 16 g/ha): 0 | Plant response rating, Green foxtail (Green foxtail; Rate 32 g/ha): 60 | Plant response rating, Windgrass (windgrass; [6]): 100 | Windgrass plant response rating (0 to 100 scale) (windgrass; Rate 250 g/ha): 100 | Plant response rating, Windgrass (windgrass; [7]): 100 | Plant response rating, Spanishneedles (Spanishneedles; Rate 16 g/ha, 0 no injury, 100 complete control): 0 | Plant response rating, Spanishneedles (Spanishneedles; Rate 32 g/ha, 0 no injury, 100 complete control): 0 | Spanishneedles plant response rating (Spanishneedles; Rate 64 g/ha, 0 no injury, 100 complete control): 0 | Spanishneedles plant response rating (Spanishneedles; Rate 125 g/ha, 0 no injury, 100 complete control): 70 | Plant response rating, Spanishneedles (Spanishneedles; Rate 250 g/ha): 60 | Plant response rating, Russian thistle (Russian thistle; Rate 62 g/ha, 0 to 100 scale): 10 | Plant response rating, Russian thistle (Russian thistle; Rate 125 g/ha, 0 to 100 scale): 0 | Plant response rating, Russian thistle (Russian thistle; [5]): 0 | Russian thistle plant response rating (Russian thistle; [8]): 0 | ABUTH Observed ([3]; Alone: Cmpd. rate 70, Rimsulfuron 0): 40% | ABUTH Observed ([3]; Alone: Cmpd. rate 105, Rimsulfuron 0): 60%
